Results reported in ChEMBL document CHEMBL1158935, “New Polyhydroxy Sterols, Dysidamides, and a Dideoxyhexose from the Sponge Dysidea herbacea” (J Nat Prod, 1991).
Converted amounts (≈) assume the structure as drawn.

Test system: P388
Experiment: Cytotoxicity against mouse P388 cells
Format: functional, cell-based

Structure (SMILES) | IC50
C=C(CC[C@@H](C)[C@H]1CC[C@H]2C3=C[C@@H](OC(C)=O)[C@@]4(O)C[C@@H](OC(C)=O)CC[C@]4(C)[C@@]3(O)[C@H](OC(C)=O)C[C@]12C)C(C)C | 6.5 µg/mL (≈ 11 µM)
C=C(CC[C@@H](C)[C@H]1CC[C@H]2C3=C[C@@H](OC(C)=O)[C@@]4(O)C[C@@H](OC(C)=O)CC[C@]4(C)[C@H]3CC[C@]12C)C(C)C | 1.46 µg/mL (≈ 2.84 µM)
C=C(CC[C@@H](C)[C@H]1CC[C@H]2C3=C[C@H](OC(C)=O)[C@@]4(O)C[C@@H](OC(C)=O)CC[C@]4(C)[C@@]3(O)[C@H](OC(C)=O)C[C@]12C)C(C)C | 4.78 µg/mL (≈ 8.12 µM)
